The values below are quoted from earlier work in patent US9669099B2, “Pine bark extract and black pepper essential oil with anti-inflammatory and anti-arthritic action and method of preparing same” (priority 2015, dated 2017).

Data set [1] concerns leukotriene production. The conditions noted are these: leukotriene as a mediator of inflammation.
The subject of data set [2] is NF-kB activation.
Data set [3] has as its system neutrophil migration.
For data set [4], the system named is TNF-a and IL-1b.
Data set [5] has as its system kinin B1 receptors.
The subject of data set [6] is TNF-α (Tumor Necrosis Factor alpha). Particulars: fibroblast cultures, all animals assessed.

With `C=CC(C)(O)CCC=C(C)C` (racemic) [(±)-linalool], the “inhibitor of leukotriene production” value in data set [1] is given as “effective as an inhibitor”.

On to `CC1=C[C@@H](O)[C@@H]2C[C@H]1C2(C)C` (relative stereo) [(+)-cis-verbenol], for which the “inhibitor of leukotriene production” value in data set [1] was “effective as an inhibitor”.

As to `C=C(C)C1CC=C(C)CC1` (single isomer, unassigned; (+)) [(+)-limonene], the “inhibitor of leukotriene production” value in data set [1] was “effective as an inhibitor”.

On to `CC1CCC(C(C)C)C(O)C1` (single isomer, unassigned; (-)) [(−)-menthol], for which, in data set [1], the “inhibitor of leukotriene production” value was “effective as an inhibitor”.

For `CC1=CC[C@@H]2C[C@H]1C2(C)C` [(+)-α-pinene], the “inhibitor of leukotriene production” value in data set [1] was “effective as an inhibitor”.

In the case of `CC1=CC[C@H]2C[C@@H]1C2(C)C` [(−)-α-pinene], the “inhibitor of leukotriene production” value in data set [1] is “effective as an inhibitor”.

As for `C/C1=C\CC/C(C)=C/CC(C)(C)/C=C/C1` [Alpha-humulene], the “inhibition of LPS-induced NF-kB activation” value in data set [2] is given as “inhibit”. The “inhibition of LPS-induced neutrophil migration” value in data set [3] is reported as “inhibit”. In addition, the “prevention of production of proinflammatory cytokines TNF-a and IL-1b” value in data set [4] is “ability to prevent”. Also, in data set [5], the “prevention of in vivo up-regulation of kinin B1 receptors” value is reported as “ability to prevent”.

Take `C=C1CC/C=C(\C)CC[C@@H]2[C@@H]1CC2(C)C` [Beta-caryophyllene]: the “inhibition of LPS-induced NF-kB activation” value in data set [2] is given as “inhibit”. For the same molecule, in data set [3], the “inhibition of LPS-induced neutrophil migration” value is reported as “inhibit”.

In the case of `CC(C)=CCCC(C)=CC=O` [citral], in data set [1], the “inhibitor of leukotriene production” value was “effective as an inhibitor”.

Consider `CC(C)=CCC/C(C)=C/CO` [geraniol], for which the “inhibitor of leukotriene production” value in data set [1] was “effective as an inhibitor”.

With `C=C(C)[C@H]1CC=C(C)CC1` [limonene], the “inhibition of TNF-α” value in data set [6] is listed as “inhibition of TNF-α”.

Consider `CC1=CCCC(C)(C)C1C=O` (stereo not drawn) [α-cyclocitral], for which the “inhibitor of leukotriene production” value in data set [1] is reported as “effective as an inhibitor”.

`CC1=CC=C(C(C)C)CC1` [α-terpinene]: the “inhibitor of leukotriene production” value in data set [1] is given as “effective as an inhibitor”.

In the case of `C=CC(=C)CCC=C(C)C` [β-myrcene], the “inhibitor of leukotriene production” value in data set [1] is “effective as an inhibitor”.

For the molecule `CC1=CCC(C(C)C)=CC1` [γ-terpinene], the “inhibitor of leukotriene production” value in data set [1] is “effective as an inhibitor”.
